Source: PubChem BioAssay AID330 (DTP/NCI, 2004)
Where “and” joins values, the source holds several entries; their conditions need not be identical. Identical values can stand only once. Inconclusive results and toxic doses are left out.

System: P388 leukemia ip, CD2F1 mice, survival T/C
Experiment: NCI In Vivo Anticancer Drug Screen. Data for tumor model P388 Leukemia (intraperitoneal) in CD2F1 (CDF1) mice
Conditions: endpoint: median survival time, higher = longer survival
Outline: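 Mice carrying the transplanted tumor received test compound or vehicle. Survival was recorded in each group, and the value is the treated-group measurement divided by that of the vehicle-treated control group.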

[1] = dose: 100.0 mg/kg/injection, schedule: Q01DX001 (ip), vehicle: saline with Tween-80
[2] = dose: 200.0 mg/kg/injection, schedule: Q01DX001 (ip), vehicle: saline with Tween-80
[3] = dose: 400.0 mg/kg/injection, schedule: Q01DX001 (ip), vehicle: saline with Tween-80
[4] = dose: 60.0 mg/kg/injection, schedule: Q01DX005 (ip), vehicle: saline with Tween-80
[5] = dose: 120.0 mg/kg/injection, schedule: Q01DX005 (ip), vehicle: saline with Tween-80
[6] = dose: 240.0 mg/kg/injection, schedule: Q01DX005 (ip), vehicle: saline with Tween-80
[7] = dose: 50.0 mg/kg/injection, schedule: Q01DX005 (ip), vehicle: saline with Tween-80
[8] = dose: 100.0 mg/kg/injection, schedule: Q01DX005 (ip), vehicle: saline with Tween-80
[9] = dose: 200.0 mg/kg/injection, schedule: Q01DX005 (ip), vehicle: saline with Tween-80
[10] = dose: 50.0 mg/kg/injection, schedule: Q01DX009 (ip), vehicle: saline with Tween-80
[11] = dose: 100.0 mg/kg/injection, schedule: Q01DX009 (ip), vehicle: saline with Tween-80
[12] = dose: 50.0 mg/kg/injection, schedule: Q01DX005 (ip), vehicle: Klucel (hydroxypropylcellulose) (HPC)
[13] = dose: 100.0 mg/kg/injection, schedule: Q01DX005 (ip), vehicle: Klucel (hydroxypropylcellulose) (HPC)
[14] = dose: 200.0 mg/kg/injection, schedule: Q01DX005 (ip), vehicle: Klucel (hydroxypropylcellulose) (HPC)

COC1/C=C\OC2(C)Oc3c(C)c(O)c4c(c3C2=O)C(=O)C=C(NC(=O)C(C)=C/C=C\C(C)C(=O)C(C)C2OC(C)(C)OC(C1C)C2C)C4=O (stereo not drawn)
T/C (dose: 6.25 mg/kg/injection, schedule: Q04DX003 (ip), vehicle: other): 100 % of control
T/C (dose: 12.5 mg/kg/injection, schedule: Q04DX003 (ip), vehicle: distilled water + Tween-80): 106 % of control and 110 % of control
T/C (dose: 12.5 mg/kg/injection, schedule: Q04DX003 (ip), vehicle: other): 107 % of control
T/C (dose: 25.0 mg/kg/injection, schedule: Q04DX003 (ip), vehicle: distilled water + Tween-80): 101 % of control and 121 % of control
T/C (dose: 25.0 mg/kg/injection, schedule: Q04DX003 (ip), vehicle: other): 156 % of control
T/C (dose: 50.0 mg/kg/injection, schedule: Q04DX003 (ip), vehicle: distilled water + Tween-80): 91 % of control and 95 % of control
T/C (dose: 50.0 mg/kg/injection, schedule: Q04DX003 (ip), vehicle: other): 108 % of control
T/C (dose: 100.0 mg/kg/injection, schedule: Q04DX003 (ip), vehicle: distilled water + Tween-80): 103 % of control and 97 % of control
T/C (dose: 100.0 mg/kg/injection, schedule: Q04DX003 (ip), vehicle: other): 118 % of control
T/C (dose: 200.0 mg/kg/injection, schedule: Q04DX003 (ip), vehicle: distilled water + Tween-80): 113 % of control and 117 % of control

C/C(=C/c1cc(Br)c2c(c1)OCO2)[N+](=O)[O-]
T/C [1]: 110 % of control
T/C [2]: 100 % of control
T/C [3]: 99 % of control

COc1cc(/C=N/NC(=O)c2cc(OC)c(OC)c(OC)c2)ccc1O
T/C [4]: 99 % of control
T/C [5]: 101 % of control
T/C [6]: 95 % of control

CN=C(N)c1ccc(N=C(N)c2ccc(C(N)=Nc3ccc(C(N)=NC)cc3)cc2)cc1
T/C (dose: 1.3 mg/kg/injection, schedule: Q01DX005 (iv), vehicle: saline): 100 % of control
T/C (dose: 5.0 mg/kg/injection, schedule: Q04DX003 (ip), vehicle: saline): 100 % of control
T/C (dose: 6.48 mg/kg/injection, schedule: Q04DX002 (ip), vehicle: saline): 92 % of control
T/C (dose: 10.0 mg/kg/injection, schedule: Q04DX003 (ip), vehicle: saline): 100 % of control
T/C (dose: 10.8 mg/kg/injection, schedule: Q01DX005 (ip), vehicle: water): 120 % of control
T/C (dose: 20.0 mg/kg/injection, schedule: Q01DX009 (ip), vehicle: saline): 172 % of control
T/C (dose: 30.0 mg/kg/injection, schedule: Q01DX005 (ip), vehicle: saline): 163 % of control

COC(=O)C(Cc1cc(OC)c(OC)c(OC)c1I)C(=O)OC
T/C [1]: 102 % of control
T/C [2]: 100 % of control
T/C [3]: 103 % of control

Nc1nc(N)c2[nH]c(N=Nc3ccc(N(CCO)CCO)cc3)nc2n1
T/C [7]: 106 % of control
T/C [8]: 106 % of control
T/C [9]: 108 % of control

O=C(O)/C(Br)=C/c1ccccc1
T/C [10]: 87 % of control
T/C [11]: 91 % of control
T/C (dose: 200.0 mg/kg/injection, schedule: Q01DX009 (ip), vehicle: saline with Tween-80): 87 % of control

O=C(Nc1ccc(CCO)cc1)c1cccc(F)c1
T/C [4]: 93 % of control
T/C [5]: 86 % of control
T/C [6]: 86 % of control

CC(C)(O)c1cc(=O)n(Cc2ccccc2)[nH]1
T/C [12]: 106 % of control
T/C [13]: 109 % of control
T/C [14]: 108 % of control

COC(=O)C1C(C(=O)OC)C2N(c3ccccc3)C=NN2C1C(=O)c1ccccc1 (stereo not drawn)
T/C [7]: 96 % of control
T/C [8]: 103 % of control
T/C [9]: 93 % of control

[CH3][Sn]([CH3])([O]C(=O)CNC(=O)c1ccccc1)[O]C(=O)CNC(=O)c1ccccc1
T/C (dose: 0.79 mg/kg/injection, schedule: Q01DX001 (ip), vehicle: Klucel (hydroxypropylcellulose) (HPC)): 97 % of control
T/C (dose: 1.56 mg/kg/injection, schedule: Q01DX001 (ip), vehicle: Klucel (hydroxypropylcellulose) (HPC)): 93 % of control
T/C (dose: 3.12 mg/kg/injection, schedule: Q01DX001 (ip), vehicle: Klucel (hydroxypropylcellulose) (HPC)): 100 % of control

C=CCSc1nc2ccc(NC(=O)CCC(=O)O)cc2s1
T/C (dose: 50.0 mg/kg/injection, schedule: Q01DX009 (ip), vehicle: Klucel (hydroxypropylcellulose) (HPC)): 103 % of control
T/C (dose: 100.0 mg/kg/injection, schedule: Q01DX009 (ip), vehicle: Klucel (hydroxypropylcellulose) (HPC)): 111 % of control
T/C (dose: 200.0 mg/kg/injection, schedule: Q01DX009 (ip), vehicle: Klucel (hydroxypropylcellulose) (HPC)): 93 % of control

COC(=O)CC1(C(=O)OC)Oc2ccc(Br)cc2C(=O)N1c1ccc(Br)cc1Cl (stereo not drawn)
T/C [7]: 96 % of control
T/C [8]: 96 % of control
T/C [9]: 91 % of control

Cc1cnc(C)n2c(C)nnc12
T/C (dose: 100.0 mg/kg/injection, schedule: Q04DX003 (ip), vehicle: saline): 99 % of control
T/C (dose: 200.0 mg/kg/injection, schedule: Q04DX003 (ip), vehicle: saline): 96 % of control

CCOC(=O)CC(=O)Cc1oc2c(C(C)=O)c(O)c(C)c(O)c2c1C
T/C [12]: 86 % of control
T/C [13]: 87 % of control
T/C [14]: 90 % of control

O=C1CC(c2ccccc2)NCCCCN2C(=O)C=Cc3ccccc3C2CCN1 (stereo not drawn)
T/C (dose: 6.25 mg/kg/injection, schedule: Q01DX009 (ip), vehicle: Klucel (hydroxypropylcellulose) (HPC)): 100 % of control
T/C (dose: 12.5 mg/kg/injection, schedule: Q01DX009 (ip), vehicle: Klucel (hydroxypropylcellulose) (HPC)): 94 % of control

Clc1ccccc1C(=Nc1ccccc1)C(=Nc1ccccc1)c1ccccc1Cl
T/C (dose: 100.0 mg/kg/injection, schedule: Q04DX002 (ip), vehicle: Klucel (hydroxypropylcellulose) (HPC)): 99 % of control
T/C (dose: 200.0 mg/kg/injection, schedule: Q04DX002 (ip), vehicle: Klucel (hydroxypropylcellulose) (HPC)): 102 % of control
T/C (dose: 400.0 mg/kg/injection, schedule: Q04DX002 (ip), vehicle: Klucel (hydroxypropylcellulose) (HPC)): 96 % of control

O=C(CCN1C(=O)c2ccccc2C1=O)c1cnc(N2C(=O)c3ccccc3C2=O)[nH]1
T/C (dose: 20.0 mg/kg/injection, schedule: Q01DX005 (ip), vehicle: Klucel (hydroxypropylcellulose) (HPC)): 98 % of control
T/C (dose: 40.0 mg/kg/injection, schedule: Q01DX005 (ip), vehicle: Klucel (hydroxypropylcellulose) (HPC)): 97 % of control
T/C (dose: 80.0 mg/kg/injection, schedule: Q01DX005 (ip), vehicle: Klucel (hydroxypropylcellulose) (HPC)): 91 % of control

COCC(=O)C1(O)Cc2c(O)c3c(c(O)c2C(O)C1)C(=O)c1c(OC)cccc1C3=O (stereo not drawn)
T/C (dose: 1.56 mg/kg/injection, schedule: Q01DX009 (ip), vehicle: other): 92 % of control
T/C (dose: 3.13 mg/kg/injection, schedule: Q01DX009 (ip), vehicle: other): 101 % of control
T/C (dose: 6.25 mg/kg/injection, schedule: Q01DX009 (ip), vehicle: other): 101 % of control
T/C (dose: 12.5 mg/kg/injection, schedule: Q01DX009 (ip), vehicle: other): 94 % of control
T/C (dose: 25.0 mg/kg/injection, schedule: Q01DX009 (ip), vehicle: other): 92 % of control

COc1ccc(C=C2C(=O)N(C)C(=O)N(C)C2=O)cc1
T/C [10]: 112 % of control
T/C [11]: 118 % of control

COc1cc(NCCN(C)C(C)Cc2ccccc2)c2ncccc2c1 (stereo not drawn)
T/C (dose: 50.0 mg/kg/injection, schedule: Q01DX005 (ip), vehicle: saline): 106 % of control
T/C (dose: 100.0 mg/kg/injection, schedule: Q01DX005 (ip), vehicle: saline): 104 % of control

O=S(=O)(F)c1nc(Cl)c2[nH]cnc2n1
T/C (dose: 12.5 mg/kg/injection, schedule: Q01DX005 (ip), vehicle: Klucel (hydroxypropylcellulose) (HPC)): 106 % of control
T/C (dose: 25.0 mg/kg/injection, schedule: Q01DX005 (ip), vehicle: Klucel (hydroxypropylcellulose) (HPC)): 114 % of control
T/C [12]: 110 % of control and 114 % of control

CC(C(=O)c1ccc(Cl)cc1)c1ccccc1 (stereo not drawn)
T/C (dose: 50.0 mg/kg/injection, schedule: Q01DX009 (ip), vehicle: saline): 96 % of control
T/C (dose: 100.0 mg/kg/injection, schedule: Q01DX009 (ip), vehicle: saline): 105 % of control
T/C (dose: 200.0 mg/kg/injection, schedule: Q01DX009 (ip), vehicle: saline): 99 % of control
